Read-outs that look alike come from different tables or passages of the source.
How the values were obtained:
[1] = tested on: mitochondrial membrane potential; type: cell-based, mouse
reactive oxygen species = type: cell-based, mouse
OXPHOS gene expression = type: cell-based, mouse
nuOXPHOS transcripts = type: cell-based, mouse; settings: for nucOXPHOS Z: Table 7, C2C12 myotubes, 48 h, composite Z-score
mtOXPHOS transcripts = type: cell-based, mouse; settings: for mito-OXPHOS Z: Table 7, C2C12 myotubes, 48 h, composite Z-score
cytochrome c = type: cell-based, mouse
Sequence of cytochrome c (P62897 whole entry): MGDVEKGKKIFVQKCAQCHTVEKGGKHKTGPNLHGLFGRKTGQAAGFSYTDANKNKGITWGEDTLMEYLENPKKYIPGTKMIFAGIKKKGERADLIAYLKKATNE

[2] = tested on: cellular dehydrogenase activity
[3] = normalized composite Z-score vs mock-treated (DMSO) wells, Conc 20 μM
[4] = composite Z-score vs DMSO wells, Conc 20 μM
[5] = composite Z-score vs mock-treated (DMSO) wells, Conc 20 μM
[6] = composite Z-score vs DMSO, Conc 20 μM
[7] = Conc 20 μM, normalized score vs mock-treated (DMSO) wells

CC(=O)OC1CCC2(C)C(CCC3C2CCC2(C)C3CC3OC4(CCC(C)CO4)C(C)C32)C1 (stereo not shown) [neotigogenin acetate]
ΔΨm [1, 3]: −0.822 | ROS (reactive oxygen species; [3]): −0.437 | GE-HTS (OXPHOS gene expression; [3]): −0.890 | nucOX (nuOXPHOS transcripts; [3]): −0.925 | mitoOX (mtOXPHOS transcripts; [3]): −0.693 | cyt c (cytochrome c; [3]): −0.049 | Viability (C2C12 myotubes; [3]): −0.705 | MTT [2, 3]: −1.611

CC(=O)O[C@@H]1CC2C(C)(C)C(=O)[C@@H]3O[C@@H]3[C@]2(C)C2CC[C@]3(C)C(=CC(=O)O[C@H]3c3ccoc3)[C@@]21C (stereo partly drawn) [1 (2)alpha-epoxydeoxydihydrogedunin]
ΔΨm [1, 3]: 0.074 | ROS (reactive oxygen species; [3]): 2.784 | GE-HTS (OXPHOS gene expression; [3]): −0.801 | nucOX (nuOXPHOS transcripts; [3]): −0.831 | mitoOX (mtOXPHOS transcripts; [3]): −0.539 | cyt c (cytochrome c; [3]): 0.022 | Viability (C2C12 myotubes; [3]): 0.015 | MTT [2, 3]: −1.048

CN1C[C@H](C(=O)N[C@]2(C)O[C@@]3(O)[C@@H]4CCCN4C(=O)[C@H](Cc4ccccc4)N3C2=O)C[C@@H]2c3cccc4[nH]cc(c34)C[C@H]21 [dihydroergotamine]
ΔΨm [1, 4]: 0.372 | ROS (reactive oxygen species; [4]): 1.157 | GE-HTS (OXPHOS gene expression; [4]): 0.008 | nucOX (nuOXPHOS transcripts; [4]): −0.021 | mitoOX (mtOXPHOS transcripts; [4]): 0.143 | cyt c (cytochrome c; [4]): −0.494 | Viability (C2C12 myotubes; [4]): 0.293 | MTT [2, 4]: −0.604

C=C1[C@@H]([C@@]2(C)[C@@H](OC(C)=O)CC(=O)O[C@](C)(COC(C)=O)[C@@H]2C(=O)OC)[C@@H](OC=O)[C@H](OC(=O)[C@H](O)[C@H](C)CC)[C@@]2(C)[C@H](c3ccoc3)CC(=O)[C@]12O [Prieurianin, reference compound]
ΔΨm [1, 5]: 1.108 | ROS (reactive oxygen species; [5]): −1.358 | GE-HTS (OXPHOS gene expression; [5]): 2.020 | nucOXPHOS Z (nuOXPHOS transcripts): 1.90 | nucOX (nuOXPHOS transcripts; [5]): 1.896 | mito-OXPHOS Z (mtOXPHOS transcripts): 1.93 | mitoOX (mtOXPHOS transcripts; [5]): 1.931 | cyt c (cytochrome c; [5]): −1.620 | Viability (C2C12 myotubes; [5]): −0.894 | MTT [2, 5]: −1.263

CC(C)=CCC[C@](C)(O)C1CC=C(C)CC1 (stereo partly shown) [bisabolol]
ΔΨm [1, 6]: −0.234 | ROS (reactive oxygen species; [6]): 0.061 | GE-HTS (OXPHOS gene expression; [6]): −0.963 | nucOX (nuOXPHOS transcripts; [6]): −0.983 | mitoOX (mtOXPHOS transcripts; [6]): −0.690 | cyt c (cytochrome c; [6]): 0.738 | Viability (C2C12 myotubes; [6]): 0.300 | MTT [2, 6]: 0.031

CC12CCCC(O)(C1)C1CC(C)(C)C1CC2 (stereo not drawn) [beta-caryophyllene alcohol]
ΔΨm [1, 3]: −0.433 | ROS (reactive oxygen species; [3]): 1.180 | GE-HTS (OXPHOS gene expression; [3]): 0.155 | nucOX (nuOXPHOS transcripts; [3]): 0.105 | mitoOX (mtOXPHOS transcripts; [3]): 0.264 | cyt c (cytochrome c; [3]): −1.030 | Viability (C2C12 myotubes; [3]): −0.960 | MTT [2, 3]: −1.859

phytol
ΔΨm [1, 3]: −0.233 | ROS (reactive oxygen species; [3]): 0.940 | GE-HTS (OXPHOS gene expression; [3]): −0.177 | nucOX (nuOXPHOS transcripts; [3]): −0.098 | mitoOX (mtOXPHOS transcripts; [3]): −0.270 | cyt c (cytochrome c; [3]): 0.020 | Viability (C2C12 myotubes; [3]): −0.520 | MTT [2, 3]: −0.544

khayanthone
ΔΨm [1, 5]: 0.962 | ROS (reactive oxygen species; [5]): 0.015 | GE-HTS (OXPHOS gene expression; [5]): 1.491 | nucOX (nuOXPHOS transcripts; [5]): 1.510 | mitoOX (mtOXPHOS transcripts; [5]): 1.095 | cyt c (cytochrome c; [5]): −0.669 | Viability (C2C12 myotubes; [5]): 1.156 | MTT [2, 5]: −0.382

NCCS [mercaptamine]
ΔΨm [1]: −0.724 | ROS (reactive oxygen species): −0.661 | GE-HTS (OXPHOS gene expression): −1.175 | nucOX (nuOXPHOS transcripts): −0.980 | mitoOX (mtOXPHOS transcripts): −1.294 | cyt c (cytochrome c): 0.320 | Viability (C2C12 myotubes): −0.271 | MTT [2]: −0.085

C=CC(C1=CC(=O)C(OC)=C(OC)C1=O)c1ccccc1 (stereo not shown) [3,4-dimethoxydalbergione, reference compound]
ΔΨm [1, 5]: −3.787 | ROS (reactive oxygen species; [5]): −1.269 | GE-HTS (OXPHOS gene expression; [5]): −3.047 | nucOXPHOS Z (nuOXPHOS transcripts): −2.94 | nucOX (nuOXPHOS transcripts; [5]): −2.944 | mito-OXPHOS Z (mtOXPHOS transcripts): −2.72 | mitoOX (mtOXPHOS transcripts; [5]): −2.724 | cyt c (cytochrome c; [5]): −5.551 | Viability (C2C12 myotubes; [5]): −4.588 | MTT [2, 5]: −6.200

CCCc1occc(=O)c1CCO [2-propyl-3-hydroxyethylenepyran-4-one]
ΔΨm (composite Z-score) [1, 7]: −0.741 | ROS (composite Z-score) (reactive oxygen species; [7]): 0.195 | GE-HTS (composite Z-score) (OXPHOS gene expression; [7]): 0.682 | nucOX (composite Z-score) (nuOXPHOS transcripts; [7]): 0.870 | mitoOX (composite Z-score) (mtOXPHOS transcripts; [7]): 0.202 | cyt c (composite Z-score) (cytochrome c; [7]): −0.100 | Viability (composite Z-score) (C2C12 myotubes; [7]): 0.162 | MTT (composite Z-score) [2, 7]: −0.906

CC(=O)O[C@H]1C[C@@H](O)C(C)(C)[C@@H]2C[C@@H](OC(C)=O)[C@]3(C)[C@H](CC[C@@]4(C)[C@@H](c5ccoc5)OC(=O)[C@H]5O[C@@]534)[C@@]12C [3-deacetylkhivorin]
ΔΨm [1, 3]: 0.274 | ROS (reactive oxygen species; [3]): 0.619 | GE-HTS (OXPHOS gene expression; [3]): −0.661 | nucOX (nuOXPHOS transcripts; [3]): −0.823 | mitoOX (mtOXPHOS transcripts; [3]): −0.272 | cyt c (cytochrome c; [3]): −0.600 | Viability (C2C12 myotubes; [3]): 0.398 | MTT [2, 3]: −0.317
